This note sets out measurements from patent publication US20240150365A1 (Hotspot Therapeutics, Inc., priority 2022, published 2024).

The structures appear in SMILES notation. A value given as a limit tells only on which side of the number the result lay.

For experiment [1], the target named is T1, MALT1 (Homo sapiens, UniProt Q9UDY8).
T1 construct: Avi-tagged FL MALT-1 (Pharmaron, stored at −70° C.); Avi tag
T1 sequence (Q9UDY8 1-824): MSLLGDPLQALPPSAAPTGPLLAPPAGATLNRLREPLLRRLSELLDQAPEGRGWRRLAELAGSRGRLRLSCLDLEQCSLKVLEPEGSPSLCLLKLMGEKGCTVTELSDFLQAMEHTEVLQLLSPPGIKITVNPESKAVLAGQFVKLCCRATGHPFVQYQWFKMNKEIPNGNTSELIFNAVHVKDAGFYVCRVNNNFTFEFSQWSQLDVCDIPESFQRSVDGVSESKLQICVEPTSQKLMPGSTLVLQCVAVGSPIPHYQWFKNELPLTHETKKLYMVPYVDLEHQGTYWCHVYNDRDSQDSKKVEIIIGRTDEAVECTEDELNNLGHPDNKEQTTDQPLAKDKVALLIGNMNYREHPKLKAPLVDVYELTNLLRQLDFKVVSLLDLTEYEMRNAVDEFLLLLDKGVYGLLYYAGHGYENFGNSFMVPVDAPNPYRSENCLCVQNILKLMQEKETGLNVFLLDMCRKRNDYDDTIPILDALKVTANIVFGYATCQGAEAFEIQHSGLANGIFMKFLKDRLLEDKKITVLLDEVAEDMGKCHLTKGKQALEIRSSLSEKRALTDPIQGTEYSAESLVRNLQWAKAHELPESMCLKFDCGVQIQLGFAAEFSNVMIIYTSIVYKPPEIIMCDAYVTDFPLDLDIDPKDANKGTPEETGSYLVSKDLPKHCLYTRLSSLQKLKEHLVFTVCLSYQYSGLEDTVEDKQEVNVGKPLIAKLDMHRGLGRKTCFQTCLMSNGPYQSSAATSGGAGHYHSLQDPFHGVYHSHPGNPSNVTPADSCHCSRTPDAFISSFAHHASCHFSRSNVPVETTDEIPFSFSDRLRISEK
Put plainly: MALT-1 Fluorogenic Peptide Cleavage Assay (MALT1 inhibition assay). Type of experiment: biochemical. The settings on record: Avi-tagged FL MALT-1, Ac-LRSR-AMC peptide substrate, 30 min pre-incubation, 90 min reaction. The method, boiled down: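 Avi-tagged full-length MALT1 pre-incubated 30 min with compound (2% DMSO final), then cleavage of Ac-LRSR-AMC followed over 90 min at room temperature. AMC fluorescence read at 342/441 nm; % inhibition fitted to sigmoidal curves for IC50.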

Experiment [2] has as its system NF-kB. The experiment is described as follows: NF-kB reporter assay in Jurkat cells stimulated with aCD3/aCD28/PMA. Format: cell-based. The settings on record: Homo sapiens, Jurkat, Jurkat cells, 1 hr compound incubation, aCD3/aCD28/PMA stimulation 4 hr, One-Glo readout; read-out: NF-kB Reporter Assay IC50. Put shortly:
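Jurkat cells (25,000/well, serum-free RPMI 1640) preincubated 1 hr at 37° C with serially diluted compound, then stimulated with aCD3/aCD28/PMA (final 5 μg/mL, 5 μg/mL, 0.03 μg/mL) for 4 hr. Reporter luminescence read with One-Glo; IC50 derived.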
(In general: Reporter assays use an easily measured gene product as a stand-in for the process of interest.)

What is called IC50 is the concentration needed to halve the response being measured. On to `COc1ccc2[nH]nc(C)c2c1NS(=O)(=O)c1ccc(-c2cnn3c2CCC3)nc1` [Example I-295], for which the figures for the IC50 in experiment [1] and in experiment [2] were over 2500 nM and under 400 nM, respectively.
The matching figures for `C=Cn1ncc2cccc(NS(=O)(=O)c3ccc(-n4cc(C(F)(F)F)cn4)nc3)c21` [Example I-296, 6-(4-(trifluoromethyl)-1H-pyrazol-1-yl)-N-(1-vinyl-1H-indazol-7-yl)pyridine-3-sulfonamide]: 1000 to 2500 nM and under 400 nM.
`C=Cn1cc2cccc(NS(=O)(=O)c3ccc(-n4cc(C(F)(F)F)cn4)nc3)c2n1` [Example I-297]: the IC50 in experiment [1] and in experiment [2] was over 2500 nM in each case.
Turning to `Cn1ncc2cccc(NS(=O)(=O)c3ccc(-n4nc(C(F)(F)F)c5c4CCOC5)nc3)c21` [Example I-298], the IC50 was over 2500 nM in experiment [1] and under 400 nM in experiment [2].
`COc1ncc2cnn(C)c2c1NS(=O)(=O)c1ccc(-c2cnn3c2OCCC3)nc1` [Example I-299]: the half-inhibitory concentration (IC50) in experiment [1] and in experiment [2] was over 2500 nM each time.
Turning to `COc1ncc2cnn(C)c2c1NS(=O)(=O)c1ccc(-n2nc(C(F)(F)F)c3c2CCOC3)nc1` [Example I-300, N-(6-methoxy-1-methyl-1H-pyrazolo[4,3-c]pyridin-7-yl)-6-(3-(trifluoromethyl)-6,7-dihydropyrano[4,3-c]pyrazol-1(4H)-yl)pyridine-3-sulfonamide], the IC50 was under 400 nM in experiment [1] and 400 to 1000 nM in experiment [2].
For the compound `COc1ncc2cnn(C)c2c1NS(=O)(=O)c1ccc(-c2cnn3c2COCC3)nc1` [Example I-301], the 50% inhibitory concentration (IC50) in experiment [1] and in experiment [2] was 1000 to 2500 nM each time.
As to `Cn1ncc2cccc(NS(=O)(=O)c3ccc(-c4cnn5c4OCCC5)nc3)c21` [Example I-302, N-(1-methylindazol-7-yl)-6-{5H,6H,7H-pyrazolo[3,2-b][1,3]oxazin-3-yl}pyridine-3-sulfonamide], the IC50 is over 2500 nM in experiment [1] and under 400 nM in experiment [2].
Taken in the same sequence, the figures for `COc1ccc2cnn(C)c2c1NS(=O)(=O)c1ccc(-c2cnn3c2OCCC3)nc1` [Example I-303, 6-(6,7-dihydro-5H-pyrazolo[5,1-b][1,3]oxazin-3-yl)-N-(6-methoxy-1-methyl-1H-indazol-7-yl)pyridine-3-sulfonamide] were over 2500 nM and 400 to 1000 nM.
With `COc1ccc2cnn(C)c2c1NS(=O)(=O)c1ccc(-n2nc(C(F)(F)F)c3c2CCOC3)nc1` [Example I-304, N-(6-methoxy-1-methyl-1H-indazol-7-yl)-6-(3-(trifluoromethyl)-6,7-dihydropyrano[4,3-c]pyrazol-1(4H)-yl)pyridine-3-sulfonamide], the 50% inhibitory concentration (IC50) in experiment [1] and in experiment [2] was under 400 nM each time.
As for `COc1ncc2cnn(C)c2c1NS(=O)(=O)c1ccc(-c2nn(C)c3c2COCC3)nc1` [Example I-305], the IC50 in experiment [1] is over 2500 nM; in experiment [2], 400 to 1000 nM.
`Cn1nc(-c2ccc(S(=O)(=O)Nc3cccc4cnn(C)c34)cn2)c2c1CCOC2` [Example I-306, 6-(1-methyl-1,4,6,7-tetrahydropyrano[4,3-c]pyrazol-3-yl)-N-(1-methyl-1H-indazol-7-yl)pyridine-3-sulfonamide]: the half-inhibitory concentration (IC50) was over 2500 nM in experiment [1] and under 400 nM in experiment [2].
The matching figures for `COc1ccc2cnn(C)c2c1NS(=O)(=O)c1ccc(-c2nn(C)c3c2COCC3)nc1` [Example I-307]: over 2500 nM and 400 to 1000 nM.
In the case of `COc1ccc2cnn(C)c2c1NS(=O)(=O)c1ccc(-c2cnn3c2COCC3)nc1` [Example I-308], the IC50 in experiment [1] is 1000 to 2500 nM; in experiment [2], under 400 nM.
Taken in the same sequence, the figures for `Cn1ncc2cccc(NS(=O)(=O)c3ccc(-c4cnc5n4CCOC5)nc3)c21` [Example I-309, 6-(5,6-dihydro-8H-imidazo[2,1-c][1,4]oxazin-3-yl)-N-(1-methyl-1H-indazol-7-yl)pyridine-3-sulfonamide] were over 2500 nM and under 400 nM.
The matching figures for `COc1ccc2cnn(C)c2c1NS(=O)(=O)c1ccc(-c2cnn3c2COCCC3)nc1` [Example I-310, 6-(7,8-dihydro-4H,6H-pyrazolo[5,1-c][1,4]oxazepin-3-yl)-N-(6-methoxy-1-methyl-1H-indazol-7-yl)pyridine-3-sulfonamide]: over 2500 nM and over 2500 nM.
For `COc1ncc2cnn(C)c2c1NS(=O)(=O)c1ccc(-c2cnn3c2COCCC3)nc1` [Example I-311], the half-maximal inhibitory concentration (IC50) in experiment [1] and in experiment [2] was over 2500 nM throughout.
In the case of `COc1ccc2cnn(C)c2c1NS(=O)(=O)c1ccc(-c2cnc3n2CCOC3)nc1` [Example I-312, 6-(5,6-dihydro-8H-imidazo[2,1-c][1,4]oxazin-3-yl)-N-(6-methoxy-1-methyl-1H-indazol-7-yl)pyridine-3-sulfonamide], the values for the IC50 in experiment [1] and in experiment [2] were 1000 to 2500 nM and 400 to 1000 nM, respectively.
The matching figures for `Cn1ncc2cccc(NS(=O)(=O)c3ccc(-c4cnn5c4COCCC5)nc3)c21` [Example I-313]: over 2500 nM and under 400 nM.
In the case of `CN1CCn2ncc(-c3ccc(S(=O)(=O)Nc4cccc5cnn(C)c45)cn3)c2C1` [Example I-314, 6-{5-methyl-4H,6H,7H-pyrazolo[1,5-a]pyrazin-3-yl}-N-(1-methylindazol-7-yl)pyridine-3-sulfonamide], the IC50 is over 2500 nM in experiment [1] and 1000 to 2500 nM in experiment [2].
With `COc1ccc2cnn(C)c2c1NS(=O)(=O)c1ccc(-c2cnn3c2CN(C)CC3)nc1` [Example I-315], the concentration for half-maximal inhibition (IC50) in experiment [1] and in experiment [2] was over 2500 nM in each case.
As to `[2H]C([2H])([2H])Oc1ccc2cnn(C([2H])([2H])[2H])c2c1NS(=O)(=O)c1ccc(-n2cc(C(F)(F)F)cn2)nc1` [Example I-316, N-(6-(methoxy-d3)-1-(methyl-d3)-1H-indazol-7-yl)-6-(4-(trifluoromethyl)-1H-pyrazol-1-yl)pyridine-3-sulfonamide], the IC50 in experiment [1] and in experiment [2] was under 400 nM throughout.
